From patent US9763884B2, “Drug delivery system” (EB IP HYBRITABS B.V., priority 2011, dated 2017)

Columns and labels:
[1] = Clinical cross-over pharmacokinetic study of F1 versus F2 (testosterone and sildenafil citrate) in healthy pre-menopausal women; settings: female, human, plasma, other: sublingual, 0.5 mg
Experimental: Sildenafil (S) and N-desmethyl-sildenafil (NDS) concentrations were determined by HPLC-MS/MS as follows.
The human plasma samples were vortex mixed and 0.5 mL of the sample was transferred into a clean test tube to which 20 μL of an Internal Standard solution (10 ng/mL) in methanol was added and vortex mixed. Then, 4 mL Methyl-Tertiary-Butyl-Ether (MTBE) was added, tubes were capped and shaken for 10 minutes and then centrifuged for 5 minutes at 2000 rcf. The tubes were placed into a snap freezer and the bottom water layer was frozen. The supernatant was transferred into a clean tube and evaporated to dryness under a stream of nitrogen. […]
Cmax and Tmax were read from the observed values. The half life was calculated from the unweighted linear regression of the log transformed data determined at the elimination phase of the pharmacokinetic profile. The Area Under Curve (O-last) was determined as the area under the concentration versus time curve from the first time point to last time point with measurable drug concentration with a linear/log-linear trapezoidal model. The AUC (0-∞) was determined by extrapolation from the time point where the last measurable drug concentration (Cp) occurred to time infinity. […] Tlag was determined as the first time point with a measurable concentration.
The calculated concentrations were used for PK calculations.

[2] = general statement in the discussion, no source given; cited from earlier work
[3] = Pharmacokinetics of three single doses of sublingual testosterone solution in healthy premenopausal women; settings: for AUC(0-t) / Cmax / MRT / Tmax / half-life / bioavailability: female, human, in vivo; for AUC(0-t) / Cmax / MRT / Tmax / half-life: serum; for AUC(0-t) / Cmax: geometric mean (% CV); for MRT / Tmax / half-life: mean ± SD
Experimental: All 16 subjects received each investigational drug dose once in random order. Wash-out between treatments was at least 48 h. Subjects had serial blood samples drawn via an intravenous catheter. Pharmacokinetic parameters were monitored at baseline and (at 2, 4, 6, 8, 10, 20, 30, 60, 90, 120, 180, 230 min) after dosing.
Blood samples in the placebo condition were only measured at −5, 10, 60 and 230 min.
For the placebo solution 0.50 ml was administered.
The different doses were prepared by an unblinded research associate and administered by blinded research associates. The blinded research associate administered the solution into the subjects mouth under the tongue, the subjects were instructed to keep the solution sublingually for 1 minute while moving the tongue slightly to optimize absorption. After 1 minute the blinded research associate instructed the subject to swallow the solution.
E2 was analysed by a chemiluminescence immunoassay (Siemens), the LLOQ was […]. 3α-diol-G was measured by ELISA (BioVendor), the LLOQ was 0.25 ng/mL. SHBG was measured by an electrochemiluminescent assay (ECLIA, Roche). Albumin was measured by Roche Bromocresol Green (BCG) analysis (Roche).
The pharmacokinetic parameters were analyzed using the WinNonlin software (version 5.1). Pharmacokinetic parameters including area under the curve, t=0 till t=230 min (AUC0-230), maximum concentration (Cmax) and time to maximum concentration (tmax) were calculated based on actual and baseline corrected individual concentration time curves. AUCs were estimated using the linear trapezoidal rule. Individual pharmacokinetic parameters AUC0-230 and Cmax and corresponding dose normalized parameters were log transformed and analyzed using a mixed maximum likelihood analysis (PROC MIXED in SAS, version 9.1) including subject as a random factor and drug as a fixed effect factor. Contrasts were made of the least square means to compare the different doses. Tmax was analyzed using a Wilcoxon rank sum test. This was based on the planned times corresponding to the actual tmax to prevent bias in analysis results based on differences in sampling times.
Subsequently, we divided the subjects into two subgroups, on the basis of their baseline SHBG levels (mean of placebo, 0.25, 0.50, 0.75 mg predose levels). This subdivision was based on a median split of the baseline SHBG levels. One group (N=8) with low SHBG levels (≦63 nmol/L) and the other group (N=8) with relatively high SHBG levels (>63 nmol/L).

[4] = 0.25 mg, free testosterone, 0.25 mg sublingual
[5] = 0.25 mg, total testosterone, 0.25 mg sublingual
[6] = 0.5 mg, free testosterone, 0.50 mg sublingual
[7] = 0.5 mg, total testosterone, 0.50 mg sublingual
[8] = 0.75 mg, free testosterone, 0.75 mg sublingual
[9] = 0.75 mg, total testosterone, 0.75 mg sublingual
[10] = subjects with high SHBG, 0.25 mg
[11] = subjects with high SHBG, 0.50 mg
[12] = subjects with high SHBG, 0.75 mg
[13] = subjects with low SHBG, 0.25 mg, at 20 min after dosing
[14] = subjects with low SHBG, 0.50 mg, at 20 min after dosing
[15] = subjects with low SHBG, 0.75 mg, at 20 min after dosing

C[C@]12CC[C@H]3[C@@H](CCC4=CC(=O)CC[C@@]43C)[C@@H]1CC[C@@H]2O [Testosterone, testosterone]
Tmax [1]: 10 to 20 min | half-life [1]: ~37 min | T1/2 of free testosterone (rapidly metabolized) [2]: 10 min | time at which serum free and total testosterone levels peaked ([3]; all three doses (0.25, 0.50, 0.75 mg) sublingual): 15 min | AUC(0-t) ([3]; 0.25 mg, Baseline corrected AUC 0-230, free testosterone, 0.25 mg sublingual): 0.0158 ng·h/mL | AUC(0-t) ([3]; 0.25 mg, Baseline corrected AUC 0-230, total testosterone, 0.25 mg sublingual): 3.23 ng·h/mL | Cmax [3, 4]: 0.021 ng/mL | Cmax [3, 5]: 3.79 ng/mL | MRT [3, 4]: 52.6 min | MRT [3, 5]: 57.7 min | Tmax [3, 4]: 15.6 min | Tmax [3, 5]: 15.6 min | half-life ([3]; 0.25 mg, t1/2, free testosterone, 0.25 mg sublingual): 42.3 ± 14.6 min | half-life ([3]; 0.25 mg, t1/2, total testosterone, 0.25 mg sublingual): 49.8 ± 16 min | bioavailability ([3]; 0.5 mg): 69% | AUC(0-t) ([3]; 0.5 mg, Baseline corrected AUC 0-230, free testosterone, 0.50 mg sublingual): 0.0252 ng·h/mL | AUC(0-t) ([3]; 0.5 mg, Baseline corrected AUC 0-230, total testosterone, 0.50 mg sublingual): 4.43 ng·h/mL | Cmax [3, 6]: 0.032 ng/mL | Cmax [3, 7]: 5.31 ng/mL | MRT [3, 6]: 57.1 min | MRT [3, 7]: 55.6 min | Tmax [3, 6]: 14.4 min | Tmax [3, 7]: 15.1 min | half-life ([3]; 0.5 mg, t1/2, free testosterone, 0.50 mg sublingual): 55.7 ± 27.5 min | half-life ([3]; 0.5 mg, t1/2, total testosterone, 0.50 mg sublingual): 49.7 ± 22.4 min | bioavailability ([3]; 0.75 mg): 58% | AUC(0-t) ([3]; 0.75 mg, Baseline corrected AUC 0-230, free testosterone, 0.75 mg sublingual): 0.0312 ng·h/mL | AUC(0-t) ([3]; 0.75 mg, Baseline corrected AUC 0-230, total testosterone, 0.75 mg sublingual): 5.62 ng·h/mL | Cmax [3, 8]: 0.043 ng/mL | Cmax [3, 9]: 6.73 ng/mL | MRT [3, 8]: 51.4 min | MRT [3, 9]: 59.5 min | Tmax [3, 8]: 12.8 min | Tmax [3, 9]: 14.3 min | half-life ([3]; 0.75 mg, t1/2, free testosterone, 0.75 mg sublingual): 51.1 ± 26.4 min | half-life ([3]; 0.75 mg, t1/2, total testosterone, 0.75 mg sublingual): 58.5 ± 24.6 min | influence on 3α-diol-G concentrations ([3]; increasing doses, t=0, 60, 120, 230): does not seem to influence | maximum levels of free testosterone [3, 10]: 0.018 ng/mL | maximum levels of total testosterone [3, 10]: 5.00 ng/mL | maximum levels of free testosterone [3, 11]: 0.026 ng/mL | maximum levels of total testosterone [3, 11]: 7.08 ng/mL | maximum levels of free testosterone [3, 12]: 0.034 ng/mL | maximum levels of total testosterone [3, 12]: 9.04 ng/mL | maximum levels of free testosterone [3, 13]: 0.026 ng/mL | maximum levels of total testosterone [3, 13]: 3.18 ng/mL | maximum levels of free testosterone [3, 14]: 0.039 ng/mL | maximum levels of total testosterone [3, 14]: 3.93 ng/mL | maximum levels of free testosterone [3, 15]: 0.048 ng/mL | maximum levels of total testosterone [3, 15]: 4.73 ng/mL | tolerability ([3]; three doses sublingual testosterone): well tolerated
